Like-named read-outs stand apart in the source and are kept apart here. Blank lines part the entries; values can stand above or below the molecule they belong to.
What was measured:
[1] = test system: HUVEC and MDA-MB-231 cells; test: in vitro antiproliferative screening, endothelial versus tumor cells; format: cell-based, human; conditions: for difference between inhibition of tumor cells and of endothelial cell proliferation (selectivity): MDA-MB-231 versus HUVEC; for antiproliferative activity in vitro (in words): cell line not specified
Text: Compounds with no chain or with variable methylene chain lengths (1–4) were synthesized by replacing hydroxyl group at position-17 of D-ring of 2ME2 to block estrone formation or glucuronation. Similarly several analogs of 17-deoxyestrone with modification at position-2 were synthesized to block the both glucuronation and hydrolysis of the methoxy group to the hydroxyl. For these analogs data will be presented on the synthesis and preliminary in vitro screening in human umbilical vein endothelial cells (HUVEC) and breast cancer tumor MDA-MB-231 cells for antiproliferative activity, and in MCF-7 tumor cancer cells for estrogenic activity.
(§1) In order to assess the biological activity of modifications at position 16, the anti-proliferative activity of these analogs was evaluated on human umbilical vein endothelial cells (HUVEC) and breast carcinoma cell line, MDA-MB-231 as models for the anti-angiogenic and anti-tumor activity, respectively.

[2] = test system: MDA-MB-231 human breast carcinoma cells; test: MDA-MB-231 in vitro cellular proliferation inhibition (BrdU); format: cell-based
Protocol: MDA-MB-231 human breast carcinoma cells were grown in DMEM containing 10% FCS (Hyclone Laboratories, Logan Utah) and supplemented with 2 mM L-Glutamine, 100 units/ml penicillin, 100 μg/ml streptomycin (Irvine Scientific, Santa Anna, Calif.).
MDA-MB-231 cells were plated at 5000 cells/ml in 96-well plates. After allowing the cells to attach overnight, the appropriate fresh media were applied containing differing concentrations of 2-ME2 or derivatives thereof, as described below. Drug was dissolved in DMSO (Sigma, St. Louis, Mo.) and added to the wells in a volume of 200 μl. Cells were incubated for two days at 37° C.; at 32 h BrdU was added. BrdU cell proliferation assay (a nucleotide analogue that is incorporated into DNA) was performed as described by the manufacturer (Roche). Each condition was prepared in triplicate and the experiments were carried out a minimum of two times. Results presented are means +/− SE.

MCF7 cells = test: MCF7 estrogen-dependent proliferation assay (cell counting); format: cell-based; conditions: for MCF7 Fold stimulation: estrogen-dependent proliferation
Protocol: MCF7 cells, an estrogen dependent breast carcinoma cell line, were maintained in DMEM/F12 (1:1) containing 10% (v/v) fetal bovine serum (Hyclone Laboratories, Logan, Utah) and 1×antibiotic-antimytotic. MCF7 cells were used between passage 60 and passage 90. For MCF7 estrogen-dependent proliferation assay the cells were seeded in complete media at 20–30,000 cells/well in a 24 well plate. After allowing the cells to adhere overnight the seeding density was determined by cell counts. Cells were washed with PBS (37° C.) and starved by placing them in IMEM-phenol red free media containing 2% charcoal-dextran fetal bovine-stripped serum (Georgetown University) and 1×antibiotic-antimitotic. After 3 days of starvation, cells were treated with or without increasing concentrations of compounds, replacing the media every 2–3 days and counted after 8 or 10 days of treatment. Proliferation was measured by cell counting using a Coulter Z1 cell counter (Coulter Corporation, Hialeah, Fla.). Each condition was done in triplicate.

HUVEC cells = test: HUVEC in vitro cellular proliferation inhibition (BrdU, bFGF); format: cell-based, human
Protocol: HUVEC cells were grown in EGM (Clonetics).
HUVEC cells were plated at 5000 cells/ml in 96-well plates. After allowing the cells to attach overnight, the cells were washed with PBS and incubated in the absence of growth factor for 24 h (EBM, 2% FCS, Clonetics). Cells were treated with increasing concentrations of drug in EBM containing 2% FCS and 10 ng/ml bFGF for 48 h at 37° C. Drug preparation, volumes added and BrdU proliferation assay were performed as indicated above.
as §1, with “2-Methoxyestradiol is a potent anti-angiogenic and anti-tumor agent. In” for “In”

[3] = test system: chick embryo chorioallantoic membrane; test: chick embryo chorioallantoic membrane (CAM) assay; format: in vivo; conditions: 100 μg disk, after 48 hours
Protocol: Anti-proliferative activity is evaluated in situ by testing the ability of an improved estradiol derivative to inhibit the proliferation of new blood vessel cells (angiogenesis). A suitable assay is the chick embryo chorioallantoic membrane (CAM) assay described by Crum et al. Science 230:1375 (1985). See also, U.S. Pat. No. 5,001,116, hereby incorporated by reference, which describes the CAM assay. Briefly, fertilized chick embryos are removed from their shell on day 3 or 4, and a methylcellulose disc containing the drug is implanted on the chorioallantoic membrane. The embryos are examined 48 hours later and, if a clear avascular zone appears around the methylcellulose disc, the diameter of that zone is measured.

[4] = test system: vascular endothelial cell proliferation; conditions: cited from earlier work
[5] = Table 4, dehydrogenated/substituted 2ME2 derivatives, read-out: MDA-MB-231 (IC50 μM)
[6] = Table 4, dehydrogenated/substituted 2ME2 derivatives
[7] = Homo sapiens, MDA-MB-231, Table 2, 2 substituted E2 derivatives, read-out: MDA-MB-231 (IC50 μM)
[8] = Homo sapiens, HUVEC, Table 2, 2 substituted E2 derivatives

Molecule: 16β-(hydroxymethyl)estra-1,3,5(10)-triene-3,17β-diol [Table 3, Entry 6]
- difference between inhibition of tumor cells and of endothelial cell proliferation (selectivity) [1]: 10 fold

- IC50 ([2]; Table 1, 17 substituted 2ME2 derivatives, means +/− SE, read-out: MDA-MB-231 (IC50 μM)): 0.5 ± 0.05 µM
- IC50 ([2]; Table 2, 2 substituted E2 derivatives, read-out: MDA-MB-231 (IC50 μM)): 0.5 µM
- IC50 ([2]; Table 3, 16 substituted 2ME2 derivatives, read-out: MDA-MB-231 (IC50 μM)): 0.5 ± 0.05 µM
- IC50 [2, 5]: 0.5 ± 0.05 µM
Molecule: COc1cc2c(cc1O)CC[C@@H]1[C@@H]2CC[C@]2(C)[C@@H](O)CC[C@@H]12 [2-Methoxyestradiol, reference compound]
- estrogenic activity, proliferation in estrogen dependant MCF-7 cells (in words) (MCF7 cells): not estrogenic over a wide range of concentrations
- MCF7 Fold stimulation (MCF7 cells; Table 1): 1.75
- MCF7 Fold stimulation (MCF7 cells; Table 2): 1.75
- MCF7 Fold stimulation (MCF7 cells; Table 3): 1.75
- IC50 (HUVEC cells; Table 1, 17 substituted 2ME2 derivatives): 0.66 ± 0.02 µM
- IC50 (HUVEC cells; Table 2, 2 substituted E2 derivatives): 0.66 µM
- IC50 (HUVEC cells; Table 3, 16 substituted 2ME2 derivatives): 0.66 ± 0.02 µM
- IC50 (HUVEC cells; [6]): 0.66 ± 0.02 µM
- inhibition of cell mitosis and growth of new blood vessels [3]: inhibit cell mitosis and the growth of new blood vessels

Molecule: COc1cc2c(cc1O)CC[C@@H]1C2=CC[C@]2(C)[C@@H](O)CC[C@@H]12 [2-methoxy-estra-1,3,5(10)9(11)-tetraene-3,17β-diol]
- IC50 [2, 5]: 0.45 µM
- IC50 (HUVEC cells; [6]): 0.25 µM

Molecule: CO[C@@H]1[C@H](OC(=O)NC(=O)CCl)CC[C@]2(CO2)[C@H]1[C@@]1(C)O[C@@H]1CC=C(C)C [AGM-1470]
- half-maximal inhibition of vascular endothelial cell proliferation at lower concentration than tumor cell proliferation [4]: 4 logs

Molecule: COc1cc2c(cc1OC(C)=O)CCC1C2CC[C@@]2(C)C1CC[C@@H]2OC(C)=O (stereo partly drawn) [Entry 6]
- IC50 ([2]; Homo sapiens, MDA-MB-231, Table 1, 17 substituted 2ME2 derivatives, means +/− SE, read-out: MDA-MB-231 (IC50 μM)): 0.59 ± 0.15 µM
- IC50 (HUVEC cells; Homo sapiens, HUVEC, Table 1, 17 substituted 2ME2 derivatives): 3.6 ± 2 µM

Molecule: COc1cc2c(cc1O)CC[C@@H]1[C@@H]2CC[C@]2(C)CCC[C@@H]12 [Table 1, Entry 3, 2-methoxyestra-1,3,5(10)-triene-3-ol]
- antiproliferative activity in vitro (in words) ([1]; listed as 2-Methoxy-17-deoxyestrone): equal or better antiproliferative activity than 2ME2
- antiproliferative activity in vitro (in words) ([1]; listed as dehydroxy derivative): in vitro profile analogous to 2-methoxyestradiol

Molecule: COc1cc2c(cc1O)CC[C@@H]1[C@@H]2CC[C@]2(C)[C@@H](C)CC[C@@H]12 [Table 1, Entry 8, 2-methoxy-17β-methylestra-1,3,5(10)-triene-3-ol]
- antiproliferative activity in vitro (in words) [1]: equal or better antiproliferative activity than 2ME2

Molecule: CC[C@H]1CC[C@H]2[C@@H]3CCc4cc(O)c(OC)cc4[C@H]3CC[C@]12C [Table 1, Entry 13, 2-methoxy-17β-ethylestra-1,3,5(10)-triene-3-ol]
- antiproliferative activity in vitro (in words) [1]: equal or better antiproliferative activity than 2ME2

Molecule: CC(=O)c1cc2c(cc1O)CC[C@@H]1[C@@H]2CC[C@]2(C)[C@@H](O)CC[C@@H]12 [Table 2, Entry 2, 2-acetylestra-1,3,5(10)-triene-3,17β-diol]
- activity in breast tumor MDA-MB-231 cells (in words) [2]: good activity
- antiproliferative activity in HUVEC / endothelial cells (in words) (HUVEC cells): poor activity

Molecule: C[C@]12CC[C@@H]3c4cc(C=O)c(O)cc4CC[C@H]3[C@@H]1CC[C@@H]2O [Table 2, Entry 3, 2-formylestra-1,3,5(10)-triene-3,17β-diol]
- activity in breast tumor MDA-MB-231 cells (in words) [2]: poor activity

Molecule: C[C@]12CC[C@@H]3c4cc(CO)c(O)cc4CC[C@H]3[C@@H]1CC[C@@H]2O [Table 2, Entry 4, 2-(hydroxymethyl)estra-1,3,5(10)-triene-3,17β-diol]
- activity in breast tumor MDA-MB-231 cells (in words) [2]: poor activity

Molecule: C[C@]12CC[C@@H]3c4cc(N=[N+]=[N-])c(O)cc4CC[C@H]3[C@@H]1CC[C@@H]2O [Table 2, Entry 17, 2-Azidoestra1,3,5(10)-triene-3,17β-diol]
- IC50 ([2]; Homo sapiens, MDA-MB-231, read-out: MDA-MB-231 (IC50 μM)): 13.3 µM
- antiproliferative activity in vitro (in words) [1]: retained considerable antiproliferative activity

Molecule: CCOc1cc2c(cc1O)CC[C@@H]1[C@@H]2CC[C@]2(C)[C@@H](O)CC[C@@H]12 [Table 2, Entry 18, 2-ethoxyestra-1,3,5(10)-triene3,17β-diol]
- IC50 [2, 7]: 0.179 µM
- IC50 (HUVEC cells; [8]): 0.06 µM

Molecule: C[C@@]12CCC[C@H]1[C@@H]1CCc3cc(O)ccc3[C@H]1CC2 [Table 2, Entry 19, estra-1,3,5(10)-triene-3-ol]
- IC50 [2, 7]: 33.9 µM
- IC50 (HUVEC cells; [8]): 8.66 µM

Molecule: COc1cc2c(cc1O)CC[C@@H]1[C@@H]2CC[C@]2(C)[C@@H](O)[C@H](C)C[C@@H]12 [Table 3, Entry 2, 2-methoxy-16α-methylestra-1,3,5(10)-triene-3,17β-diol]
- activity in MDA-MB-231 compared to 2-methoxyestradiol (in words) [2]: better activity than 2-methoxyestradiol

Molecule: COc1cc2c(cc1O)CC[C@@H]1[C@@H]2CC[C@]2(C)[C@@H](O)[C@@H](C)C[C@@H]12 [Table 3, Entry 3, 2-methoxy-16β-methylestra-1,3,5(10)-triene-3,17β-diol]
- drop in activity in MDA-MB-231 compared to 2-methoxyestradiol [2]: about 5 fold

Molecule: CCC1C[C@H]2[C@@H]3CCc4cc(O)c(OC)cc4[C@H]3CC[C@]2(C)[C@H]1O (stereo partly drawn) [Table 3, Entry 4, 2-methoxy-16-ethylestra-1,3,5,(10)-triene-3,17β-diol]
- drop in activity in MDA-MB-231 compared to 2-methoxyestradiol [2]: ~3 fold
- inhibition of HUVEC cell proliferation compared to 2-methoxyestradiol (in words) (HUVEC cells): about equipotent to 2-methoxyestradiol

Molecule: CCC[C@@H]1C[C@H]2[C@@H]3CCc4cc(O)c(OC)cc4[C@H]3CC[C@]2(C)[C@H]1O [Table 3, Entry 7, 2-methoxy-16α-propaneestra-1,3,5(10)-triene-3,17β-diol]
- difference between inhibition of tumor cells and of endothelial cell proliferation (selectivity) [1]: more than ten-fold less active
- antiproliferative activity in HUVEC / endothelial cells (in words) (HUVEC cells): good activity
